The values that follow come from ChEMBL document CHEMBL5579895, “Discovery of TYRA-300: First Oral Selective FGFR3 Inhibitor for the Treatment of Urothelial Cancers and Achondroplasia” (J Med Chem, 2024).

Data set [1] is described as follows: Inhibition of recombinant FGFR3/BAIAP2L1 (unknown origin) transduced in mouse BaF3 cells incubated for 48 hrs by Cell Titer Glo assay. As to conditions: BaF3, 48 h. Format: cell-based. On the technique in general: In ATP-based viability assays light output follows the ATP content of the culture.
Data set [2] is described as follows: Inhibition of recombinant BCR/FGFR1 (unknown origin) transduced in mouse BaF3 cells incubated for 48 hrs by Cell Titer Glo assay. Format: cell-based. As to conditions: BaF3, 48 h.
The nature of data set [3]: Inhibition of recombinant BCR/FGFR2 (unknown origin) transduced in mouse BaF3 cells incubated for 48 hrs by Cell Titer Glo assay. Format: cell-based. The settings on record: BaF3, 48 h.
Data set [4] can be described thus: Inhibition of recombinant BCR/FGFR4 (unknown origin) transduced in mouse BaF3 cells incubated for 48 hrs by Cell Titer Glo assay. Format: cell-based. As to conditions: BaF3, 48 h.
A short description of data set [5]: Stability in human hepatocytes assessed as half life at 1 uM incubated upto 180 mins by LC-MS/MS analysis. Format: ADME, cell-based, Hepatocyte.
Data set [6] has as its system RT112/84. Kind of data set: cells. The settings on record: Homo sapiens. Format: functional, cell-based.
Description: Inhibition of cell viability in human RT112/84 cells harboring FGFR3/TACC3 fusion incubated for 72 to 120 hrs by Cell Titer Glo assay
Data set [7] deals with RT112/84. Kind of data set: cells. As to conditions: Homo sapiens. Format: functional, cell-based. This is another data set of the same source.
Description: Inhibition of cell viability in human RT112/84 cells harboring FGFR3 V555M mutant incubated for 72 to 120 hrs by Cell Titer Glo assay
The nature of data set [8]: Inhibition of cell viability in human UMUC14 cells harboring FGFR3 S249C mutant incubated for 72 to 120 hrs by Cell Titer Glo assay. Format: functional, cell-based.
A further data set deals with KG-1. Kind of data set: Inhibition of cell viability in human KG-1 cells harboring FGFR1-fusion incubated for 72 to 120 hrs by Cell Titer Glo assay. Format: functional, cell-based.
The subject of data set [9] is RT112/84. The experiment in a line: Antitumor activity against human RT112/84 cells harboring FGFR3/TACC3 fusion xenografted in Balb/c nude mouse model at 15 mg/kg, po bid treated for 21 days relative to control. Format: functional. The settings on record: RT112/84, 504 h, time 21 day, read-out: TGI.
A further data set relates to RT-4. Kind of data set: Inhibition of cell viability in human RT-4 cells harboring FGFR3/TACC3 fusion incubated for 72 to 120 hrs by Cell Titer Glo assay. Format: functional, cell-based.
The next data set has as its system DMS-114. Kind of data set: Inhibition of cell viability in human DMS-114 cells harboring FGFR1-amplification incubated for 72 to 120 hrs by Cell Titer Glo assay. Format: functional, cell-based.
The nature of data set [10]: Inhibition of cell viability in human UMUC14 cells harboring FGFR3 V555M mutant incubated for 72 to 120 hrs by Cell Titer Glo assay. Format: functional, cell-based.
The subject of data set [11] is RT112/84. Kind of data set: animal or person. Format: functional, Homo sapiens. The settings on record: Mus musculus, RT112/84, 504 h, route po, time 21 day, read-out: TGI.
Description: Antitumor activity against human RT112/84 cells harboring FGFR3/TACC3 fusion xenografted in Balb/c nude mouse model at 12.5 mg/kg, po bid treated for 21 days relative to control
The test system of data set [12] is RT112/84. The experiment in a line: animal or person. Format: functional, Homo sapiens. As to conditions: Mus musculus, RT112/84, 504 h, route po, time 21 day, read-out: TGI. This is another data set of the same source.
Description: Antitumor activity against human RT112/84 cells harboring FGFR3 V555M mutant xenografted in Balb/c nude mouse model at 12.5 mg/kg, po bid treated for 21 days relative to control

pIC50: −log10 of the molar value.

On to `C[C@@H](Oc1ccc2[nH]nc(-c3ccc(N4CC5(CCN(S(C)(=O)=O)C5)C4)nc3)c2c1)c1c(Cl)cncc1Cl`, for which the pIC50 in [1] was 7.80; in data set [2] it was 6.40; in data set [3], 6.65; in [4] it was 6.75; in the data set on RT112/84 [6], 7.89; in the data set on RT112/84 [7], 7.44. The pIC50 in [8] was 7.89; with KG-1, 6.69. For the same molecule, the half-life at 1 µM in data set [5] was more than 1.67 h. Besides, the inhibition in vivo at 15 mg/kg in the data set with RT112/84 [9] was 22%.

In the case of `C[C@@H](Oc1ccc2[nH]nc(-c3ccc(N4CC5(C4)CN(S(C)(=O)=O)C5)nc3)c2c1)c1c(Cl)cnnc1Cl`, the pIC50 is 8.07 in data set [1]; 6.75 in [2]; 7.17 in data set [3]; 7.42 in the data set with RT112/84 [6]; 7.05 in the data set with RT112/84 [7]; 5.80 in [8]. Besides, the pIC50 was 6.84 with RT-4, 6.71 in the data set on KG-1 and 5.52 with DMS-114. Also, in [5], the half-life at 1 µM stood at 0.3 h.

For `C[C@@H](Oc1ccc2[nH]nc(-c3ccc(N4CC5(CCS(=O)(=O)C5)C4)nc3)c2c1)c1c(Cl)cncc1Cl`, the pIC50 is 8.49 in data set [1]; 6.98 in data set [2]; 6.95 in data set [3]; 6.97 in data set [4]; 8.04 in the data set on RT112/84 [6]; 7.66 with RT112/84 [7]. Further, the figures for the pIC50 (in data set [8]; in the data set with KG-1) were 8.00 and 7.08, respectively. Besides, in data set [5], the half-life at 1 µM worked out at 1.7 h. Further, the inhibition in vivo at 15 mg/kg in the data set on RT112/84 [9] was determined as 56%.

Turning to `C[C@@H](Oc1ccc2[nH]nc(-c3ccc(N4CC5(CCS(=O)(=O)CC5)C4)nc3)c2c1)c1c(Cl)cncc1Cl`, the pIC50 in data set [1] was 7.96; in data set [2] it was 6.89; in data set [3] it was 6.88; in data set [4], 6.77; with RT112/84 [6], 8.08; in the data set on RT112/84 [7] it was 7.77. Moreover, the pIC50 was 8.00 in [8] and 6.48 with KG-1. The half-life at 1 µM in data set [5] was found to be 1.43 h. In the data set with RT112/84 [9], the inhibition in vivo at 15 mg/kg is 76%.

On to `COc1cc(OC)cc(N(CCNC(C)C)c2ccc3ncc(-c4cnn(C)c4)nc3c2)c1` [ERDAFITINIB], for which the pIC50 in [1] was 8.59; in data set [2], 8.28; in data set [3], 8.42; in data set [4], 7.96; in the data set with RT112/84 [6] it was 8.44; in the data set with RT112/84 [7], 5.67. Further, the pIC50 in data set [8] is 8.42; in data set [10], less than 5.52; in the data set with RT-4, 8.36; with KG-1 it was 8.68; in the data set on DMS-114, 7.96. Further, the inhibition in vivo at 12.5 mg/kg was 73% in the data set on RT112/84 [11] and 12% in the data set with RT112/84 [12].

By pIC50 is commonly meant the negative decadic logarithm of the IC50, by convention in mol/L. A word on the half-life: it is the time needed for the level to fall by half in the phase considered.
